According to paper PMC10853860 (2023):
Values belong to the compound of their own block, whether it stands above or below them.

Key:
[1] = system: T. ilyis ldcC SAM-I variant riboswitch WT (TiltrxWT) (RNA, riboswitch) AAAAUAUCUCUUAUUAAUAGCCGUUGAGACGAGGGGUCGAAGAUACGGUGGCAAACCAAUCAAUCCAAUUUUUUUGCAGUACGGAUUGAUAUUGGGUGCCCAACCUGAGCGUAGGAUUAUCCAAGUCCUAUGAGCAAUAAGAGGAAAAGCAGCUGAUAGAUAUCGAAGCUUUCCUUUGGUUGGAGAGCUUUUUUUAUGCCCAUUUUUUAUAUCAAAGGGGGAAAUCUAU; test: single-round transcription termination; details: 100 mM KCl, 2 mM MgCl2, 20 mM Tris-HCl pH 8.0, 37 °C; for binding: 1 mM tested, no termination increase; for T50: E. coli RNA polymerase, apparent
[2] = system: 135 metK RNA (RNA, riboswitch) GGUCUAUCUUAUUAAUAGCCGUUGAGACGAGGGGUCGAAGAAGCGGUGGCAAACCAGUCCAAAUCAAUGAUUUGGAUAUGGGGCCCAACCUGAGCGCAGAGCUUUUCUGUUCUGUGAACAAUAAGAGGAUAAGCAG; test: in-line probing; details: 100 mM KCl, 2 mM MgCl2, 50 mM Tris-HCl pH 7.5, ~20 °C, apparent
[3] = system: T. ilyis hypo consensus SAM-I riboswitch (TilconsSAMItrx) (RNA, riboswitch) AAAAUAACUUCUUUAUCACGAGAGAUUGAGGGACUGGCCCGAUGACAUCUCAGCAACCGACCCACGCGUAACGCGGCGGCACGGUGCUAAAUCCUGCAGAGUAAUCUGAGAGAUAAGAAGAGCAAAUCGACAUUCCCGACUCUUCUUGUUAUAAGAAGGGUUUUUUGUUUUCAAAAAAACAAUCUGGAGGGAAAAACG; test: single-round transcription termination; details: 100 mM KCl, 2 mM MgCl2, 20 mM Tris-HCl pH 8.0, 37 °C
[4] = system: 135 metK M14 (RNA, riboswitch) GGUCUAUCUUAUUAAAAGCCGUUGAGACGAGGGGUCGAAGAAGCGGUGGCAUACCAGUCCAAAUCAAUGAUUUGGAUAUGGGGCCAAACCUGAGCGCAGAGCUUUUCUGUUCUGUGAACAAUAAGAGGAUAAGCAG; test: in-line probing; details: 100 mM KCl, 2 mM MgCl2; 50 mM Tris-HCl pH 7.5, ~20 °C; 1 and 5.6 mM tested
[5] = system: T. ilyis ldcC M9 (TiltrxshortP1) (RNA, riboswitch) AAUUAAUAGCCGUUGAGACGAGGGGUCGAAGAUACGGUGGCAAACCAAUCAAUCCAAUUUUUUUGCAGUACGGAUUGAUAUUGGGUGCCCAACCUGAGCGUAGGAUUAUCCAAGUCCUAUGAGCAAUAAGAGGAAAAGCAGCUGAUAGAUAUCGAAGCUUUCCUUUGGUUGGAGAGCUUUUUUUAUGCCCAUUUUUUAUAUCAAAGGGGGAAAUCUAU; test: single-round transcription termination; details: 100 mM KCl, 2 mM MgCl2; 20 mM Tris-HCl pH 8.0, 37 °C; no termination response
[6] = system: (RNA, riboswitch) AAAAUAUCUCUUAUUAAUAGCCGUUGAGACGAGGGGUCGAAGAUACGGUGGCAAACCAAUCAAUCCAAUUUUUUUGCAGUACGGAUUGAUAUUGGGUGCCCAACCUGAGCGUAGGAUUAUCCAAGUCCUAUGAGCAAUAAGAGGAAAAGCAGCUGAUAGAUAUCGAAGCUUUCCUUUGGUUGGAGAGCUUUUUUUAUGCCCAUUUUUUAUAUCAAAGGGGGAAAUCUAU; test: single-round transcription termination; details: 100 mM KCl, 2 mM MgCl2; 20 mM Tris-HCl pH 8.0, 37 °C; 1 mM tested; no termination increase

binding [1]: no
SMILES: CC(=O)NCCCNCCCCN

KD ([2]; Hill 1.5): ~ 860 μM
SMILES: CC(=O)NCCCNCCCCNCCCN

binding [1]: no
SMILES: CCCNCCCN

binding [1]: no
SMILES: CCNCCCN

binding [1]: no
SMILES: CNCCCN

binding [1]: no
SMILES: CSC[C@H]1O[C@@H](n2cnc3c(N)ncnc32)[C@H](O)[C@@H]1O

binding [1]: no
binding ([3]; 1 mM SAM, strong termination): yes
SMILES: C[S+](CC[C@H](N)C(=O)O)C[C@H]1O[C@@H](n2cnc3c(N)ncnc32)[C@H](O)[C@@H]1O (some centres unmarked)

T50 [1]: 214 µM
KD ([2]; Hill 1.4, replicate ~730 μM): ~ 670 μM
binding [4]: weak
binding ([3]; 1 mM tested, no termination response): no
binding [5]: no
SMILES: NCCCCNCCCN

binding [1]: no
SMILES: NCCCN

T50 [1]: 79 µM
KD ([2]; Hill 1.4): ~ 340 μM
SMILES: NCCCNCCCCNCCCN

binding [6]: no
SMILES: NCCCSC[C@H]1O[C@@H](n2cnc3c(N)ncnc32)[C@H](O)[C@@H]1O
